Assay results from patent publication US20230125212A1, “MEANS AND METHODS FOR ENHANCING CA[…]” (priority 2020, published 2023).

Tested on: pilocarpine-induced epilepsy
Assay: Rat model of pilocarpine-induced epilepsy, seizure scoring by Racine scale
Assay type: in vivo
Conditions: CBD 25 mg/kg IP; cumulative Racine score over 120 min after pilocarpine 350 mg/kg
Method: Objective: The aim of the current study is to assess the effect of a new CBD formulation as seizures protection in the rat model of pilocarpine-induced epilepsy.
Study variables and endpoints: The formulation is administered IP (Intraperitoneally). The animals are assessed for: • a. Mortality & morbidity—Twice daily • b. Body weight monitoring—During acclimation and before Test Item (TI) dosing (Day 1) • c. Clinical signs—Before TI dosing, continuous follow-up during the first two hours following Pilocarpine administration. Monitoring of number and duration of seizures during 120 minutes following pilocarpine administration (Seizures rating according to Racine scale). • d. Study termination—At the end of the seizures' observation (120 minutes after Pilocarpine administration) animals are sedated with Ketamine/Xylazine mixture and are subjected to pericardial perfusion with PBS and PFA 4%, brains will be removed and stored in PFA 4% until histopathological analysis
Administration of the Test Items Each Test Item and vehicle formulation are administered to tested animals, according to Table. […]
Seizure scoring: Following model induction by Pilocarpine injection, the animals are video recorded for 2 hours. The videos are analyzed and seizures rating are recorded according to the following Racine scale below. • a. […]

C=C(C)[C@@H]1CCC(C)=C[C@H]1c1c(O)cc(CCCCC)cc1O [CBD, Cannabidiol]
AV-Seizure Score: 29.2
